Results as given in PubChem BioAssay AID1259411 (Chemical Carcinogenesis Research Information System (CCRIS), 2018).
Calls of active or inactive are those of the source. The rule behind the calls is not given here.

System: rodent carcinogenicity bioassays, tumor incidence
Test: CCRIS carcinogenicity studies
Method in brief: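 NCI-built, expert-reviewed records of carcinogenicity and related test outcomes (mutagenicity, tumor promotion/inhibition) compiled from published and report sources, historical span 1985-2011, not updated.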

For `Oc1ccc(Cl)cc1Cc1ccccc1`, the carcinogen call (Species: MOUSE, Strain/Sex: B6C3F1/FEMALE, Route: GAVAGE, Dose: 0, 120, 240, 480 MG/KG BW IN CORN OIL 5 D/WK FOR 103 WK (STUDY DURATION: 2 YR), Dose: 0, 120, 240, 480 MG/KG BW IN CORN OIL 5 D/WK FOR 103 WK (STUDY DURATION: 2 YR)) was “inactive; negative”, the carcinogen call (Species: MOUSE, Strain/Sex: B6C3F1/MALE, Route: GAVAGE, Dose: 0, 120, 240, 480 MG/KG BW IN CORN OIL 5 D/WK FOR 103 WK (STUDY DURATION: 2 YR), Dose: 0, 120, 240, 480 MG/KG BW IN CORN OIL 5 D/WK FOR 103 WK (STUDY DURATION: 2 YR), Tumor Site: Type of Lesion: KIDNEY (RENAL TUBULE): ADENOMA, ADENOMA OR CARCINOMA) was “active; positive” and the carcinogen call (Species: MOUSE, Strain/Sex: CD-1/FEMALE, Route: DERMAL, Dose: 10 MG IN ACETONE ONCE FOLLOWED BY 0.1, 1, 3 MG 3/WK FOR 51 WK (STUDY DURATION: 52 WK), Dose: 10 MG IN ACETONE ONCE FOLLOWED BY 0.1, 1, 3 MG 3/WK FOR 51 WK (STUDY DURATION: 52 WK)) was “inactive; negative”. For the same compound, the carcinogen call (Species: MOUSE, Strain/Sex: CD-1/MALE, Route: DERMAL, Dose: 10 MG IN ACETONE ONCE FOLLOWED BY 0.1, 1, 3 MG 3/WK FOR 51 WK (STUDY DURATION: 52 WK), Dose: 10 MG IN ACETONE ONCE FOLLOWED BY 0.1, 1, 3 MG 3/WK FOR 51 WK (STUDY DURATION: 52 WK)) was “inactive; negative”, the carcinogen call (Species: RAT, Strain/Sex: F344/FEMALE, Route: GAVAGE, Dose: 0, 30, 60, 120 MG/KG BW IN CORN OIL 5 D/WK FOR 103 WK (STUDY DURATION: 105 WK), Dose: 0, 30, 60, 120 MG/KG BW IN CORN OIL 5 D/WK FOR 103 WK (STUDY DURATION: 105 WK), Tumor Site: Type of Lesion: KIDNEY (TRANSITIONAL CELL): CARCINOMA) was “equivocal” and the carcinogen call (Species: RAT, Strain/Sex: F344/MALE, Route: GAVAGE, Dose: 0, 30, 60, 120 MG/KG BW IN CORN OIL 5 D/WK FOR 103 WK (STUDY DURATION: 2 YR), Dose: 0, 30, 60, 120 MG/KG BW IN CORN OIL 5 D/WK FOR 103 WK (STUDY DURATION: 2 YR)) was “inactive; negative”.

With `O=C1NC(=O)C(c2ccccc2)(c2ccccc2)N1` the carcinogen call (Species: MOUSE, Route: INTRAPERITONEAL, ORAL, Tumor Site: Type of Lesion: HEMATOPOIETIC SYSTEM (LEUKEMIA), LYMPHATIC SYSTEM: LYMPHOMA) was “active; positive”, the carcinogen call (Species: MOUSE, Strain/Sex: B6C3F1/FEMALE, Route: IN UTERO, ORAL, Dose: 0, 21 PPM IN DIET FED TO MOTHERS 1 WK BEFORE BREEDING, THROUGH BREEDING, GESTATION AND LACTATION, THEN DIETS WITH 60 PPM) was “inactive; negative” and the carcinogen call (Species: MOUSE, Strain/Sex: B6C3F1/FEMALE, Route: IN UTERO, ORAL, Dose: 0, 70 PPM IN DIET FED TO MOTHERS 1 WK BEFORE BREEDING, THROUGH BREEDING, GESTATION AND LACTATION, THEN DIETS WITH 200 PP) was “inactive; negative”. For the same compound, the carcinogen call (Species: MOUSE, Strain/Sex: B6C3F1/FEMALE, Route: IN UTERO, ORAL, Dose: 0, 210 PPM IN DIET FED TO MOTHERS 1 WK BEFORE BREEDING, THROUGH BREEDING, GESTATION AND LACTATION, THEN DIETS WITH 0, 20, Tumor Site: Type of Lesion: LIVER: HEPATOCELLULAR ADENOMA, HEPATOCELLULAR CARCINOMA) was “active; positive”, the carcinogen call (Species: MOUSE, Strain/Sex: B6C3F1/FEMALE, Route: ORAL, Dose: 0, 200, 600 PPM IN DIET FOR 2 YR (STUDY DURATION: 2 YR), Dose: 0, 200, 600 PPM IN DIET FOR 2 YR (STUDY DURATION: 2 YR), Tumor Site: Type of Lesion: LIVER: HEPATOCELLULAR ADENOMA, HEPATOCELLULAR CARCINOMA) was “active; positive” and the carcinogen call (Species: MOUSE, Strain/Sex: B6C3F1/MALE, Route: IN UTERO, ORAL, Dose: 0, 21 PPM IN DIET FED TO MOTHERS 1 WK BEFORE BREEDING, THROUGH BREEDING, GESTATION AND LACTATION, THEN DIETS WITH 30 PPM) was “inactive; negative”. For the same compound, the carcinogen call (Species: MOUSE, Strain/Sex: B6C3F1/MALE, Route: IN UTERO, ORAL, Dose: 0, 70 PPM IN DIET FED TO MOTHERS 1 WK BEFORE BREEDING, THROUGH BREEDING, GESTATION AND LACTATION, THEN DIETS WITH 100 PP) was “inactive; negative”, the carcinogen call (Species: MOUSE, Strain/Sex: B6C3F1/MALE, Route: IN UTERO, ORAL, Dose: 0, 210 PPM IN DIET FED TO MOTHERS 1 WK BEFORE BREEDING, THROUGH BREEDING, GESTATION AND LACTATION, THEN DIETS WITH 0, 10) was “inactive; negative” and the carcinogen call (Species: MOUSE, Strain/Sex: B6C3F1/MALE, Route: ORAL, Dose: 0, 100, 300 PPM IN DIET FOR 2 YR (STUDY DURATION: 2 YR), Dose: 0, 100, 300 PPM IN DIET FOR 2 YR (STUDY DURATION: 2 YR)) was “inactive; negative”. The carcinogen call (Species: RAT, Strain/Sex: F344/DUCRJ/FEMALE, Route: ORAL, Dose: 0, 0.025, 0.05% IN BASAL DIET FOR 2 YR (STUDY DURATION: 112 WK), Dose: 0, 0.025, 0.05% IN BASAL DIET FOR 2 YR (STUDY DURATION: 112 WK)) was “inactive; negative”, the carcinogen call (Species: RAT, Strain/Sex: F344/DUCRJ/MALE, Route: ORAL, Dose: 0, 0.025, 0.05% IN BASAL DIET FOR 2 YR (STUDY DURATION: 112 WK), Dose: 0, 0.025, 0.05% IN BASAL DIET FOR 2 YR (STUDY DURATION: 112 WK)) was “inactive; negative” and the carcinogen call (Species: RAT, Strain/Sex: F344/FEMALE, Route: IN UTERO, ORAL, Dose: 0, 63 PPM IN DIET FED TO MOTHERS 1 WK BEFORE BREEDING, THROUGH BREEDING, GESTATION AND LACTATION, THEN DIETS WITH 240 PP) was “inactive; negative”. For the same compound, the carcinogen call (Species: RAT, Strain/Sex: F344/FEMALE, Route: IN UTERO, ORAL, Dose: 0, 210 PPM IN DIET FED TO MOTHERS 1 WK BEFORE BREEDING, THROUGH BREEDING, GESTATION AND LACTATION, THEN DIETS WITH 800 P) was “inactive; negative”, the carcinogen call (Species: RAT, Strain/Sex: F344/FEMALE, Route: IN UTERO, ORAL, Dose: 0, 630 PPM IN DIET FED TO MOTHERS 1 WK BEFORE BREEDING, THROUGH BREEDING, GESTATION AND LACTATION, THEN DIETS WITH 0, 80) was “inactive; negative” and the carcinogen call (Species: RAT, Strain/Sex: F344/FEMALE, Route: ORAL, Dose: 0, 800, 2400 PPM IN DIET FOR 2 YR (STUDY DURATION: 2 YR), Dose: 0, 800, 2400 PPM IN DIET FOR 2 YR (STUDY DURATION: 2 YR)) was “inactive; negative”. The carcinogen call (Species: RAT, Strain/Sex: F344/MALE, Route: IN UTERO, ORAL, Dose: 0, 63 PPM IN DIET FED TO MOTHERS 1 WK BEFORE BREEDING, THROUGH BREEDING, GESTATION AND LACTATION, THEN DIETS WITH 240 PP) was “inactive; negative”, the carcinogen call (Species: RAT, Strain/Sex: F344/MALE, Route: IN UTERO, ORAL, Dose: 0, 210 PPM IN DIET FED TO MOTHERS 1 WK BEFORE BREEDING, THROUGH BREEDING, GESTATION AND LACTATION, THEN DIETS WITH 800 P) was “inactive; negative” and the carcinogen call (Species: RAT, Strain/Sex: F344/MALE, Route: IN UTERO, ORAL, Dose: 0, 630 PPM IN DIET FED TO MOTHERS 1 WK BEFORE BREEDING, THROUGH BREEDING, GESTATION AND LACTATION, THEN DIETS WITH 0, 80) was “inactive; negative”. For the same compound, the carcinogen call (Species: RAT, Strain/Sex: F344/MALE, Route: ORAL, Dose: 0, 800, 2400 PPM IN DIET FOR 2 YR (STUDY DURATION: 2 YR), Dose: 0, 800, 2400 PPM IN DIET FOR 2 YR (STUDY DURATION: 2 YR), Tumor Site: Type of Lesion: LIVER: HEPATOCELLULAR ADENOMA OR CARCINOMA) was “equivocal”.

`CN(C)CCOC(c1ccccc1)c1ccccc1` was tested, and the carcinogen call (Species: MOUSE, Strain/Sex: B6C3F1/FEMALE, Route: ORAL, Dose: 0, 156, 313 PPM IN FEED FOR 103 WK (STUDY DURATION: 106 WK), Dose: 0, 156, 313 PPM IN FEED FOR 103 WK (STUDY DURATION: 106 WK)) was “inactive; negative”, the carcinogen call (Species: MOUSE, Strain/Sex: B6C3F1/MALE, Route: ORAL, Dose: 0, 156, 313 PPM IN FEED FOR 105 WK (STUDY DURATION: 106 WK), Dose: 0, 156, 313 PPM IN FEED FOR 105 WK (STUDY DURATION: 106 WK)) was “inactive; negative” and the carcinogen call (Species: RAT, Strain/Sex: F344/FEMALE, Route: ORAL, Dose: 0, 156, 313 PPM IN FEED FOR 103 WK (STUDY DURATION: 106 WK), Dose: 0, 156, 313 PPM IN FEED FOR 103 WK (STUDY DURATION: 106 WK), Tumor Site: Type of Lesion: PITUITARY GLAND: ADENOMA) was “equivocal”. The carcinogen call (Species: RAT, Strain/Sex: F344/FEMALE, Route: ORAL, Dose: 0, 2000 PPM IN DIET FOR 106 WK (STUDY DURATION: 130 WK)) was “inactive; negative”, the carcinogen call (Species: RAT, Strain/Sex: F344/MALE, Route: ORAL, Dose: 0, 313, 625 PPM IN FEED FOR 103 WK (STUDY DURATION: 106 WK), Dose: 0, 313, 625 PPM IN FEED FOR 103 WK (STUDY DURATION: 106 WK), Tumor Site: Type of Lesion: BRAIN: ASTROCYTOMA OR GLIOMA, LUNG: ALVEOLAR/BRONCHIOLAR ADENOMA OR CARCINOMA) was “equivocal” and the carcinogen call (Species: RAT, Strain/Sex: F344/MALE, Route: ORAL, Dose: 0, 2000 PPM IN DIET FOR 106 WK (STUDY DURATION: 130 WK)) was “inactive; negative”.
